# Assay results from patent US6057364A, “Fluoro-substituted adamantane derivatives” (Pfizer Inc, priority 1998, dated 2000).
# Assay: metabolic stability in liver microsomes (standard microsomal incubation, LC/MS)
# Assay type: in vitro ADME
# Conditions: 10 μM compound, 0.2 μM microsomal cytochrome P450, pH 7.4, 37° C, read-out: % Loss (amount of compound that was metabolically degraded)
# Method: The metabolic stability of the active compounds may be assessed according to the following procedure. A standard microsomal incubation condition is prepared for assessing the rate of metabolism of the active compound in liver microsomes. The microsomal incubation condition comprises 100 mM potassium phosphate buffer (pH 7.4), 10 mM MgCl2, 0.5 mM NADP^+ (nicotinamide adenine dinucleotide phosphate) 4 mM glucose 6 phosphate, 10 unit/mL glucose 6 phosphate dehydrogenase, 0.2 μM microsomal cytochrome P450, and 10 μM active compound. The incubation is started by adding substrate to the reaction mixture that has been preincubated for approximately 3 minutes at 37° C. An aliquot is removed at 0, 1, 2, 5, 10, and 20 minute time points and added to an equal volume of methanol to quench the reaction. The precipitate in the samples is removed by centrifugation and the supernatants are stored at -20° C. The samples are analyzed by standard LC/MS to determine the amount of active compound that has been metabolically degraded.
# The compounds illustrated in the chemical formula provided for the Table above were prepared as described in PCT published patent application WO 95/29909, which was published Nov. 9, 1995, entitled "Novel Acyclic And Cyclic Amides As Neurotransmitter Release Enhancers." The compounds illustrated above are pharmaceutically active compounds that enhance the release of neurotransmitters such as acetylcholine, dopamine and serotonin, and therefore are useful for treating Alzheimer's disease, age-associated memory impairment, Parkinson's disease and other central nervous system disorders in mammals, in particular humans. The metabolic stability of the above compounds was assessed according to the procedure described above. The metabolic stability of the above compounds is provided in the above table in the column marked "% Loss" which indicates the amount of compound that was metabolically degraded after 10 minutes in a standard microsomal incubation condition which was prepared as described above.
row,"metabolised at 10 min, 10 µM",SMILES
1,10%,O=C1CC(Cc2ccncc2)(Cc2ccncc2)C(=O)N1C12CC3(F)CC(F)(CC(F)(C3)C1)C2 [F F F]
2,> 75%,"O=C1CC(Cc2ccncc2)(Cc2ccncc2)C(=O)N1C12CC3CC(CC(C3)C1)C2 [H H H, reference compound]"
3,75%,O=C1CC(Cc2ccncc2)(Cc2ccncc2)C(=O)N1C12CC3CC(F)(CC(F)(C3)C1)C2 [F F H]
4,75%,O=C1CC(Cc2ccncc2)(Cc2ccncc2)C(=O)N1C12CC3CC(CC(F)(C3)C1)C2 [F H H]
